We go through 4 compounds from patent publication EP0458892B1, “USE OF CHLORMETHIAZOLE IN THE MANUFACTURE OF A MEDICAMENT FOR THE PREVENTION AND/OR TREATMENT OF NEURODEGENERATION” (priority 1989, dated 1990).

Assay [1] has as its system CA1/CA2 hippocampal neurones. Nature of the assay: Gerbil carotid occlusion ischaemia, test compound administered prior to induction of ischaemia. The class given is in vivo. Particulars: gerbils; for % Damage to CA1/CA2 Hippocampal Neurones: assessed after 4 days. An excerpt: (§1) The detailed mechanisms that underlie ischaemia-induced degeneration of hippocampal neurones have yet to be clarified, but the above mentioned gerbil test system has been widely used as a predictive model of neuroprotective activity (see, for example, B.J. Alps, C. Calder, W.K. Hass and A.D. Wilson, Brit. J. Pharmacol., 1988, 93, 877-883; R. Gill, A.C. Foster and G.N. Woodruff, J. Neuroscience, 1987, 7, 3343-3349).
(§2) Ischaemia was induced in gerbils by occlusion of the carotid arteries following the accepted general procedure as described in, for example, EP 230 370 and R. Gill, A.C. Foster and G.N. Woodruff, J. Neuroscience, 1987, 7, 3343-3349.
(§3) Ischaemia was induced in gerbils by 10 minute occlusion of both carotid arteries. Restoration of blood flow after occlusion was checked visually and the animals were allowed to survive for 4 days. The extent of neuronal degeneration in the hippocampus was then assessed. The test compounds were administered (i.p.) as a single dose 30 minutes prior to occlusion.

The subject of assay [2] is CA1/CA2 hippocampal neurones. The assay is described as follows: Gerbil carotid occlusion ischaemia, test compound administered following induction of ischaemia. The format is in vivo. The note with it: gerbils; for % Damage to CA1/CA2 Hippocampal Neurones: assessed after 4 days.
From the text: as §1, §2, §3
The general procedure described in (a) above was followed except that the test compound was administered (i.p.) as a single dose at the stated time following the end of the occlusion. No administration was made prior to the occlusion.

As for `Cc1ncsc1CCCl` [Chlormethiazole ethanedisulphonate], the “% Damage to CA1/CA2 Hippocampal Neurones” value in assay [1] (50mg/kg i.p. single dose 30 minutes prior to 10 minute occlusion of both carotid arteries) is recorded as 37.6 ± 13.4%; in assay [1] (100mg/kg i.p. single dose 30 minutes prior to 10 minute occlusion of both carotid arteries), < 5%; in assay [2] (50mg/kg i.p. single dose 30 minutes after the end of 10 minute occlusion), 69.4 ± 6.9%; in assay [2] (100mg/kg i.p. single dose 30 minutes after the end of 10 minute occlusion), 12.8 ± 10.4%; in assay [2] (100mg/kg i.p. single dose 1 hour after the end of 10 minute occlusion), 14.3 ± 8.7%; in assay [2] (100mg/kg i.p. single dose 2 hours after the end of 10 minute occlusion), 7.25 ± 4.8%. Besides, the “% Damage to CA1/CA2 Hippocampal Neurones” value in assay [2] (100mg/kg i.p. single dose 6 hours after the end of 10 minute occlusion) stood at 45.6 ± 14%.
In the case of `CC(C(O)c1ccc(O)cc1)N1CCC(Cc2ccccc2)CC1` (centres unmarked) [Ifenprodil], the “% Damage to CA1/CA2 Hippocampal Neurones” value in assay [1] (4mg/kg i.p. single dose 30 minutes prior to 10 minute occlusion of both carotid arteries) is 62 ± 8.0%.
For `C[C@]12N[C@H](Cc3ccccc31)c1ccccc12` [MK 801], the “% Damage to CA1/CA2 Hippocampal Neurones” value in assay [1] (3mg/kg i.p. single dose 30 minutes prior to 10 minute occlusion of both carotid arteries) is given as < 5%.
As to `Cc1ncsc1CCCl` [chlormethiazole, 5-(2-chloroethyl)-4-methylthiazole], the “damage to the CA1/CA2 hippocampal neurones (result in words)” value was “effective in reducing the damage to the CA1/CA2 hippocampal neurones” in assay [1] (i.p. single dose 30 minutes prior to occlusion, summary of Table 1) and “effective in reducing the damage to the CA1/CA2 hippocampal neurones” in assay [2] (i.p. single dose after the ischaemic insult, summary of Table 2).
